Results from patent US20140193455A1, “PHARMACEUTICAL COMPOSITION FOR PREVENTION OR TREATMENT OF STEROID-INDUCED DIABETES AND HEALTH FUNCTIONAL FOOD” (priority 2013, published 2014).

System: INS-1 cells
Test: Cell counting analysis (trypan blue) of living INS-1 cells
Format: cell-based, rat
Details: for decrease in INS-1 cell survival compared to the control: FIG. 4; for decrease in survival of INS-1 cells compared to control: treated alone
Description: The rat insulin-secreting cell line INS-1 was maintained in RPMI-1640 medium containing 10% heat-inactivated FBS (fetal bovine serum), 100 units/ml of penicillin and 100 μg/ml of streptomycin at 37° C. under the conditions of 95% humidity and 5% CO2.
One day before treatment with reagent or CLCE, INS-1 cells were cultured in a 24-well plate at a concentration of 1×10^5 cells/well in a volume of 500 μL. The INS-1 cells were treated with the indicated concentrations of reagent (Dex, LY294002, IL-1β, STZ, TG or TN) and/or CLCE for the indicated time. At each point of time, the cells were stained with trypan blue dye, and the living INS-1 cells were counted under a microscope. The cell counting was repeated three times. Data were expressed as the mean of three independent experiments.

Compound	decrease in INS-1 cell survival compared to the control (treated alone for 24 hours)	decrease in survival of INS-1 cells compared to control (FIG. 3)	also measured
tunicamycin [TN]	~50%		
interleukin-1β [IL-1β]	about 45%		
CN(N=O)C(=O)N[C@H]1C(O)O[C@H](CO)[C@@H](O)[C@@H]1O (mixture of isomers) [STZ, streptozotocin]	~82%		
O=c1cc(N2CCOCC2)oc2c(-c3ccccc3)cccc12 [LY294002]		about 24%	degree of the decrease in survival of INS-1 cells (combination of Dex and LY294002, FIG. 3): 75%
C[C@@H]1C[C@H]2[C@@H]3CCC4=CC(=O)C=C[C@]4(C)[C@@]3(F)[C@@H](O)C[C@]2(C)[C@@]1(O)C(=O)CO [Dex, dexamethasone]		about 55%	decrease in survival rate of INS-1 cells (treated alone for 24 hours, FIG. 1A): about 50%
C/C=C(/C)C(=O)O[C@H]1C(C)=C2[C@H]([C@@H]1OC(=O)CCCCCCC)[C@@](C)(OC(C)=O)C[C@H](OC(=O)CCC)[C@@]1(O)[C@H]2OC(=O)[C@@]1(C)O [TG, thapsigargin]	~88%		
